Test systems include RPMI-8226 leukemia; UACC-62 melanoma; HT29 colon; A498 renal; SK-MEL-28 melanoma; OVCAR-3 ovarian; OVCAR-4 ovarian; SF-268 CNS; BT-549 breast; SK-OV-3 ovarian.
Holding throughout (test): NCI anticancer screen, dose series, 48 h

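Briefly, cells in 96-well plates were exposed to five compound concentrations for 48 h, and endpoints were estimated by linear interpolation. GI50 marks 50% less growth. TGI: total growth inhibition.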 A value given as a limit tells only on which side of the number the result lay.

In the case of `Cn1c2c(c3ccccc3c1=O)C(=O)c1ccccc1-2`, the TGI with RPMI-8226 leukemia, with UACC-62 melanoma, in the test with HT29 colon, in the test on A498 renal, with SK-MEL-28 melanoma and with OVCAR-3 ovarian was greater than 100 µM each time. In addition, the TGI in the test with OVCAR-4 ovarian, with SF-268 CNS, in the test with BT-549 breast and in the test on SK-OV-3 ovarian was greater than 100 µM each time.

In the case of `COc1cc2c(NC3CCN(C(C)C)CC3)nc(C3CCCCC3)nc2cc1OCCCN1CCCC1`, the GI50 is 2.42 µM in the test on RPMI-8226 leukemia; 5.47 µM in the test on UACC-62 melanoma; 1.49 µM in the test with HT29 colon; 2.01 µM in the test on A498 renal; 1.72 µM in the test on SK-MEL-28 melanoma; 6.98 µM in the test on OVCAR-3 ovarian. Moreover, the GI50 in the test with OVCAR-4 ovarian is 5.36 µM; in the test on SF-268 CNS, 3.37 µM; in the test with BT-549 breast it was 3.85 µM; in the test on SK-OV-3 ovarian, 9.57 µM. In addition, the TGI worked out at 7.75 µM in the test on RPMI-8226 leukemia; 16.8 µM in the test with UACC-62 melanoma; 3.86 µM with HT29 colon; 14.1 µM in the test on A498 renal; 3.24 µM in the test with SK-MEL-28 melanoma; 20.4 µM in the test on OVCAR-3 ovarian. For the same compound, the TGI came out at 15.9 µM in the test on OVCAR-4 ovarian, 14.1 µM in the test on SF-268 CNS, 15.3 µM in the test on BT-549 breast and 23.4 µM with SK-OV-3 ovarian.

As to `O=C(N=Nc1c(Cl)c(O)c2ccccc2c1O)C(=O)Nc1cccc(C(F)(F)F)c1`, the GI50 in the test with RPMI-8226 leukemia was 3.49 µM; with UACC-62 melanoma, 3.33 µM; with HT29 colon, 6.44 µM; with A498 renal it was 9.13 µM; with SK-MEL-28 melanoma, 10.4 µM; in the test with OVCAR-3 ovarian it was 1.77 µM. Further, the GI50 in the test with OVCAR-4 ovarian is 6.03 µM; in the test on SF-268 CNS it was 3.37 µM; in the test with BT-549 breast, 3.74 µM; in the test on SK-OV-3 ovarian it was 12.9 µM. The TGI came to 15.6 µM in the test on RPMI-8226 leukemia; 16.2 µM in the test with UACC-62 melanoma; 28 µM in the test on HT29 colon; 23.6 µM in the test with A498 renal; 23.3 µM in the test on SK-MEL-28 melanoma; 4.64 µM in the test with OVCAR-3 ovarian. For the same compound, the TGI is 26.9 µM in the test on OVCAR-4 ovarian, 13 µM in the test with SF-268 CNS, 12.5 µM with BT-549 breast and 26.7 µM with SK-OV-3 ovarian.

Consider `C=C1C(=O)O[C@@H]2CC(CO)=C([C@@H](C)CCCO)[C@@H](OC(=O)/C(C)=C\C)[C@H]12`, for which the TGI in the test with RPMI-8226 leukemia is 31 µM; in the test on UACC-62 melanoma, 47.8 µM; with HT29 colon, 26.6 µM; in the test on A498 renal, greater than 74.1 µM; in the test with SK-MEL-28 melanoma, 29.3 µM; in the test with OVCAR-3 ovarian, 26.2 µM. The TGI in the test on OVCAR-4 ovarian is greater than 84.9 µM; in the test on SF-268 CNS, 50.2 µM; with BT-549 breast, greater than 90.6 µM; with SK-OV-3 ovarian, greater than 100 µM.

For the compound `c1cc(C2CCCCC2)ccc1-c1cnc2nonc2n1`, the GI50 was 0.4 µM with RPMI-8226 leukemia; 0.393 µM with UACC-62 melanoma; 0.603 µM in the test with HT29 colon; 0.565 µM in the test on A498 renal; 1.36 µM in the test with SK-MEL-28 melanoma; 0.557 µM with OVCAR-3 ovarian. The GI50 with OVCAR-4 ovarian was 0.856 µM; with SF-268 CNS, 2.13 µM; in the test with BT-549 breast it was 1.29 µM; in the test on SK-OV-3 ovarian it was 2.21 µM. Besides, the TGI with RPMI-8226 leukemia turned out to be 2.79 µM; with UACC-62 melanoma, 1.96 µM; with HT29 colon, 3.27 µM; with A498 renal, 2.32 µM; with SK-MEL-28 melanoma, 2.99 µM; with OVCAR-3 ovarian, 1.97 µM. The TGI worked out at 2.28 µM in the test with OVCAR-4 ovarian, 9.29 µM in the test on SF-268 CNS, 3.25 µM in the test with BT-549 breast and 5.98 µM in the test on SK-OV-3 ovarian.

As for `Cc1nc2sc(C(=O)Nc3ccccc3)c(N)c2cc1C(O)c1ccccc1` (stereo unspecified), the GI50 in the test on RPMI-8226 leukemia was 0.417 µM; in the test on UACC-62 melanoma, 0.382 µM; in the test with HT29 colon, 0.326 µM; in the test with A498 renal, 0.106 µM; with SK-MEL-28 melanoma, 10.8 µM; in the test on OVCAR-3 ovarian it was 0.263 µM. For the same compound, the GI50 in the test on OVCAR-4 ovarian was 0.833 µM; with SF-268 CNS it was 0.917 µM; in the test on BT-549 breast, 0.409 µM; in the test on SK-OV-3 ovarian, 0.523 µM. The TGI with RPMI-8226 leukemia was 11.7 µM; with UACC-62 melanoma, greater than 48.3 µM; in the test on HT29 colon, 17.6 µM; with A498 renal, 1.19 µM; in the test on SK-MEL-28 melanoma, greater than 100 µM; in the test with OVCAR-3 ovarian, 3.3 µM. Further, the TGI in the test with OVCAR-4 ovarian is greater than 100 µM; in the test with SF-268 CNS, greater than 100 µM; with BT-549 breast, 24.1 µM; in the test with SK-OV-3 ovarian, 38.5 µM.

`CC(=O)c1ccc2c3c1[C@H]1O[C@H]1c1cccc(c1-3)[C@@H]1O[C@H]21`: the TGI in the test with RPMI-8226 leukemia amounted to 8.35 µM; in the test on UACC-62 melanoma it was 4.15 µM; with HT29 colon it was 7.81 µM; in the test on A498 renal it was 7.36 µM; in the test on SK-MEL-28 melanoma, 5.96 µM; in the test with OVCAR-3 ovarian it was 12.1 µM. Besides, the TGI in the test on OVCAR-4 ovarian was 3.59 µM; in the test with SF-268 CNS it was 3.86 µM; in the test on BT-549 breast it was 4.53 µM; in the test with SK-OV-3 ovarian, 16 µM. For the same compound, the GI50 in the test on A498 renal is 2.74 µM.

On to `CC(C)(C)C(=O)c1c(C(F)(F)F)n([O-])c2cc(Cl)c(Cl)cc2[n+]1=O`, for which the GI50 in the test on RPMI-8226 leukemia is 0.131 µM; in the test on UACC-62 melanoma, 1.46 µM; in the test with HT29 colon, 0.192 µM; with A498 renal, 1.33 µM; in the test on SK-MEL-28 melanoma, 0.618 µM; with OVCAR-3 ovarian it was 0.125 µM. Moreover, the GI50 was 1.14 µM in the test on OVCAR-4 ovarian, 0.457 µM with SF-268 CNS, 0.769 µM in the test on BT-549 breast and 0.815 µM with SK-OV-3 ovarian. For the same compound, the TGI in the test on RPMI-8226 leukemia turned out to be 0.281 µM; with UACC-62 melanoma, 2.77 µM; with HT29 colon it was 0.546 µM; in the test with A498 renal it was 2.6 µM; with SK-MEL-28 melanoma it was 1.6 µM; with OVCAR-3 ovarian, 0.363 µM. The TGI in the test with OVCAR-4 ovarian was determined as 2.37 µM; with SF-268 CNS it was 0.902 µM; with BT-549 breast, 2.11 µM; in the test on SK-OV-3 ovarian, 2.07 µM.

Consider `O=C1CC(Cc2n[nH]c3c2CCCC3)CC(=O)N1`, for which the TGI in the test on RPMI-8226 leukemia, with UACC-62 melanoma, in the test on HT29 colon, in the test on A498 renal, with SK-MEL-28 melanoma and in the test on OVCAR-3 ovarian was greater than 100 µM throughout. Further, the TGI in the test on OVCAR-4 ovarian, in the test on SF-268 CNS, with BT-549 breast and in the test with SK-OV-3 ovarian was greater than 100 µM throughout.
